Values after ≈ are worked out from the molar mass of the structure shown. Read-outs that look alike come from different tables or passages of the source.
Assays:
[1] = test system: M. Smegmatis ATCC607; assay: In-vitro method for testing compounds for anti-bacterial activity against strain M. smegmatis ATCC607 (Alamar Blue growth inhibition); assay type: cell-based; settings: pIC50 = -logIC50, IC50 in M, 50% inhibitory concentration for bacterial growth, 48 hours incubation; for pIC50: M. smegmatis ATCC607
Method: C.2. In-vitro Method for Testing Compounds for Anti-bacterial Activity Against Strain M. Smegmatis ATCC607. […] Subsequently, stock solutions (7.8×final test concentration) of compounds were added in 45 μl volumes to a series of duplicate wells in column 2 so as to allow evaluation of their effects on bacterial growth. Serial five-fold dilutions (45 μl in 180 μl) were made directly in the microtiter plates from column 2 to 11 using a customised robot system (Zymark Corp., Hopkinton, Mass.). Pipette tips were changed after every 3 dilutions to minimize pipetting errors with high hydrophobic compounds. Untreated control samples with (column 1) and without (column 12) inoculum were included in each microtiter plate. Approximately 250 CFU per well of bacteria inoculum, in a volume of 100 μl in 2.8×Mueller-Hinton broth medium, was added to the rows […]. The same volume of broth medium without inoculum was added to column 12 in row A to H. The cultures were incubated at 37° C. for 48 hours in a humidified 5% CO2 atmosphere (incubator with open air valve and continuous ventilation). At the end of incubation, two days after inoculation, the bacterial growth was quantitated fluorometrically. Therefore Alamar Blue (10×) was added to all wells in a volume of 20 μl and plates were incubated for another 2 hours at […] The fluorescence was read in a computer-controlled fluorometer (Cytofluor, Biosearch) at an excitation wavelength of 530 nm and an emission wavelength of 590 nm (gain 30). The % growth inhibition achieved by the compounds was calculated according to standard methods.

[2] = test system: Mycobacterium tuberculosis (strain H37RV); assay: In-vitro method for testing compounds against M. tuberculosis (resazurin growth inhibition, MIC); assay type: cell-based; settings: MIC data representing IC90's, 7 days incubation, resazurin fluorescence
[3] = Mycobacterium tuberculosis, H37RV, 168 h, read-out: MIC

SMILES: COCCOc1nc2ccc(Br)cc2cc1C(c1ccccc1)C(O)(CCN(C)C)c1cccc2ccccc12 (single isomer, unassigned) [Compound 176]
- pIC50 [1]: 6.8
- MIC [2]: 9.50 microgram/ml

SMILES: COc1nc2ccccc2cc1C(c1ccccc1)C(O)(CCN(C)C)c1cccc2ccccc12 (racemic) [Compound 91]
- pIC50 [1]: 7.5
- MIC [2]: 1.51 microgram/ml

SMILES: COc1nc2ccc(Br)cc2cc1C(c1ccccc1)C(O)(CCN(C)C)c1cc(F)ccc1F (centres unmarked) [Compound 67]
- pIC50 [1]: 8.6
- MIC [2]: 0.34 microgram/ml

SMILES: COc1nc2ccc(Br)cc2cc1C(c1ccccc1)C(O)(CCN(C)C)c1ccc2ccccc2c1 (racemic) [Compound 46]
- pIC50 [1]: 6.4
- MIC [2]: 1.76 microgram/ml

SMILES: COc1nc2ccc(Br)cc2cc1C(c1ccccc1)C(O)(CCN(C)C)c1cc(Br)cc2ccccc12 (single isomer, unassigned) [Compound 150]
- pIC50 [1]: 5.7
- MIC [2]: 63.44 microgram/ml

SMILES: COc1nc2ccc(Br)cc2cc1C(c1ccccc1)C(O)(CCN(C)C)c1ccc(Cl)cc1 (single isomer, unassigned) [Compound 16]
- pIC50 [1]: 6.8
- MIC [2]: 0.34 microgram/ml

SMILES: COc1nc2ccccc2cc1C(c1ccccc1)C(O)(CCN(C)C)c1cccc(F)c1 (racemic) [Compound 94]
- pIC50 [1]: 7.9
- MIC [2]: 1.77 microgram/ml

SMILES: COc1nc2ccc(F)cc2cc1C(c1ccccc1)C(O)(CCN(C)C)c1cc(F)cc(F)c1 (racemic) [Compound 207]
- pIC50 [1]: 5.2
- MIC [2]: 48.05 microgram/ml

SMILES: COc1nc2ccc(Br)cc2cc1C(c1ccccc1)C(O)(CCN1CCN(C)CC1)c1ccc2cc(Br)ccc2c1 (single isomer, unassigned) [Compound 153]
- pIC50 [1]: 5.3
- MIC [2]: 54.77 microgram/ml

SMILES: CN(C)CCC(O)(c1cccc2ccccc12)C(c1ccccc1)c1cc2cc(Br)ccc2[nH]c1=O (single isomer, unassigned) [Compound 138]
- pIC50 [1]: 6.6
- MIC [2]: 8.58 microgram/ml

SMILES: COc1nc2ccc(Br)cc2cc1C(c1ccccc1)C(O)(CCCCN(C)C)c1ccc2ccccc2c1 (single isomer, unassigned) [Compound 190]
- pIC50 [1]: 6.5
- MIC [2]: 1.85 microgram/ml

SMILES: COc1nc2ccc(Br)cc2cc1C(c1ccccc1)C(O)(CCN(C)C)c1cccc2ccccc12 (centres unmarked) [Compound 13]
- IC50 ([1]; Mycolicibacterium smegmatis, ATCC607, 48 h, read-out: pIC50, M. smegmatis ATCC607 (converted)): 200 nM
- MIC [2]: 44.13 microgram/ml

SMILES: COc1nc2ccccc2cc1C(c1ccccc1)C(C)(O)CCN(C)C (single isomer, unassigned) [Compound 43]
- pIC50 [1]: 4.4
- MIC [2]: 44.34 microgram/ml

SMILES: COc1nc2ccc(Br)cc2cc1C(c1ccccc1)C(O)(CCCN(C)C)c1cccc2ccccc12 (single isomer, unassigned) [Compound 199]
- pIC50 [1]: 6.5
- MIC [2]: 47.47 microgram/ml

SMILES: COc1nc2ccc(Br)cc2cc1C(c1ccccc1)C(O)(CCN(C)C)c1ccc2c(Br)cccc2c1 (single isomer, unassigned) [Compound 130]
- pIC50 [1]: 5.3
- MIC [2]: 50.32 microgram/ml

SMILES: COc1nc2ccc(Br)cc2cc1C(c1ccccc1)C(O)(CCc1ccccc1)CCN(C)C (single isomer, unassigned) [Compound 96]
- pIC50 [1]: 6.2
- MIC [2]: 21.24 microgram/ml

SMILES: COc1nc2ccccc2cc1C(c1ccccc1)C(C)(O)CCN(C)C (single isomer, unassigned) [Compound 42]
- pIC50 [1]: 6.3
- MIC [2]: 44.34 microgram/ml

SMILES: COc1nc2ccc(Br)cc2cc1C(c1ccccc1)C(O)(CCN(C)C)c1ccccc1F (racemic) [Compound 70]
- pIC50 [1]: 5.8
- MIC [2]: 52.35 microgram/ml

SMILES: COc1nc2ccc(Br)cc2cc1C(c1ccc(F)cc1)C(O)(CCN(C)C)c1cccc2ccccc12 (racemic) [Compound 205]
- pIC50 [1]: 7.2
- MIC [2]: 4.56 microgram/ml

SMILES: COc1nc2ccc(Br)cc2cc1C(c1ccccc1)C(O)(CCN(C)C)c1cccnc1 (racemic) [Compound 86]
- pIC50 [1]: 6.9
- MIC [2]: 16.02 microgram/ml

SMILES: COc1nc2ccc(Br)cc2cc1C(c1ccccc1)C(O)(CCN(C)C)c1ccc2c3c(cccc13)CC2 (single isomer, unassigned) [Compound 122]
- pIC50 [1]: 4.8
- MIC [2]: 58.16 microgram/ml

SMILES: CCN(C)CCC(O)(c1ccc2ccccc2c1)C(c1ccccc1)c1cc2cc(Br)ccc2nc1OC (centres unmarked) [Compound 141]
- pIC50 [1]: 7.3
- MIC [2, 3]: 9.03 µg/mL (≈ 15.9 µM)

SMILES: COc1nc2ccc(Br)cc2cc1C(c1ccccc1)C(O)(CCN(C)C)c1cc(F)ccc1F (centres unmarked) [Compound 110]
- pIC50 [1]: 8.5
- MIC [2]: 0.34 microgram/ml

SMILES: COc1nc2ccc(Br)cc2cc1C(c1ccccc1)C(O)(CCN(C)C)c1ccsc1 (single isomer, unassigned) [Compound 24]
- pIC50 [1]: 7.2
- MIC [2]: 1.62 microgram/ml

SMILES: COc1nc2cc(C)c(C)cc2cc1C(c1ccccc1)C(O)(CCN(C)C)c1cccc2ccccc12 (single isomer, unassigned) [Compound 229]
- pIC50 [1]: 7.1
- MIC [2]: 40.09 microgram/ml

SMILES: COc1nc2ccc(-c3ccccc3)cc2cc1C(c1ccccc1)C(O)(CCN(C)C)c1cccc2ccccc12 (racemic) [Compound 84]
- pIC50 [1]: 7.0
- MIC [2]: 8.76 microgram/ml

SMILES: COc1nc2ccc(Br)cc2cc1C(c1ccccc1)C(O)(CCN(C)C)c1ccc2c(c1)OCO2 (racemic) [Compound 76]
- pIC50 [1]: 5.9
- MIC [2]: 1.74 microgram/ml

SMILES: COc1nc2ccc(Br)cc2cc1C(c1ccccc1)C(O)(CCN1CCCCC1)c1ccccc1 (centres unmarked) [Compound 47]
- pIC50 [1]: 6.5
- MIC [2, 3]: 8.65 µg/mL (≈ 15.9 µM)

SMILES: COc1nc2ccc(Br)cc2cc1C(c1ccccc1)C(O)(CCN(C)C)c1ccc(F)cc1 (single isomer, unassigned) [Compound 182]
- pIC50 [1]: 6.3
- MIC [2]: 8.30 microgram/ml

SMILES: COc1nc2ccc(Br)cc2cc1C(c1ccccc1)C(O)(CCN(C)C)c1ccc(N2CCOCC2)cc1 (racemic) [Compound 89]
- pIC50 [1]: 6.4
- MIC [2]: 59.06 microgram/ml

SMILES: COc1nc2ccc(Br)cc2cc1C(c1ccccc1)C(O)(CCn1cncn1)c1ccccc1 (racemic) [Compound 54]
- pIC50 [1]: 4.1
- MIC [2]: 52.94 microgram/ml

SMILES: COc1nc2ccc(Br)cc2cc1C(c1ccccc1)C(O)(CC[N+](C)(C)[O-])c1cccc2ccccc12 (racemic) [Compound 101]
- pIC50 [1]: 5.8
- MIC [2]: 9.06 microgram/ml

SMILES: COc1nc2ccc(Br)cc2cc1C(c1ccccc1)C(O)(CC[N+](C)(C)[O-])c1cccc2ccccc12 (single isomer, unassigned) [Compound 100]
- pIC50 [1]: 7.1
- MIC [2]: 45.40 microgram/ml

SMILES: COc1nc2ccc(Br)cc2cc1C(c1ccccc1)C(O)(CCn1ccnc1)c1cccc2ccccc12 (single isomer, unassigned) [Compound 173]
- pIC50 [1]: 4.7
- MIC [2]: 57.85 microgram/ml

SMILES: COc1nc2ccc(Cl)cc2cc1C(c1ccccc1)C(O)(CCN(C)C)c1ccccc1 (single isomer, unassigned) [Compound 30]
- pIC50 [1]: 7.8
- MIC [2]: 1.46 microgram/ml

SMILES: COc1ccc2nc(OC)c(C(c3ccccc3)C(O)(CCN(C)C)c3cccc(F)c3)cc2c1 (single isomer, unassigned) [Compound 135]
- pIC50 [1]: 7.4
- MIC [2]: 1.50 microgram/ml

SMILES: COc1ccc2cc(C(O)(CCN(C)C)C(c3ccccc3)c3cc4cc(Br)ccc4nc3OC)ccc2c1 (single isomer, unassigned) [Compound 162]
- pIC50 [1]: 7.0
- MIC [2]: 9.28 microgram/ml

SMILES: COc1nc2ccc(Br)cc2cc1C(c1ccccc1)C(O)(CCCN1CCOCC1)c1cccc2ccccc12 (single isomer, unassigned) [Compound 210]
- pIC50 [1]: 6.1
- MIC [2]: 61.16 microgram/ml

SMILES: COc1nc2ccccc2cc1C(c1ccccc1)C(O)(CCN(C)C)c1ccccc1 (single isomer, unassigned) [Compound 41]
- pIC50 [1]: 5.9
- MIC [2]: 8.51 microgram/ml

SMILES: COc1ccc2nc(OC)c(C(c3ccccc3)C(O)(CCN(C)C)c3cccc4ccccc34)cc2c1 (single isomer, unassigned) [Compound 98]
- pIC50 [1]: 7.9
- MIC [2]: 0.51 microgram/ml

SMILES: COc1nc2ccc(Br)cc2cc1C(c1ccccc1)C(O)(CCN1CCN(C)CC1)c1ccc2ccccc2c1 (racemic) [Compound 136]
- pIC50 [1]: 6.2
- MIC [2]: 16.81 microgram/ml

SMILES: COc1nc2ccc(C)cc2cc1C(c1ccccc1)C(O)(CCN(C)C)c1ccccc1 (single isomer, unassigned) [Compound 22]
- pIC50 [1]: 7.2
- MIC [2]: 1.11 microgram/ml

SMILES: COc1nc2ccc(Br)cc2cc1C(c1ccccc1)C(O)(CCN(C)C)c1ccc(F)c(F)c1 (racemic) [Compound 195]
- pIC50 [1]: 6.5
- MIC [2]: 6.82 microgram/ml
